Where two headings read alike, the source gives them in different places.
Tests used:
rats [1] = experiment: Loss of righting reflexes (LORR) assay in rats, ED50 by up and down method; format: in vivo, rat; settings: Rattus norvegicus, tail vein, class symbols
In short: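 Adult male Sprague-Dawley rats (250-300 g) dosed i.v. via tail vein at 0.1 mL/s. Anesthesia scored as loss of righting reflex lasting >30 s; ED50 derived by up-and-down method.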

rats [2] = tested on: rats
Method: Adult male Sprague-Dawley rats (250-300 g) were selected for the experiment. […] The anesthesia effects of the compounds were assessed in rats using a LORR assay and a period >30 s was considered as an indicator of general anesthesia. Then the up and down method was used to determine 50% effective dose (ED50). The drugs were administered through the tail vein of rats in a volume of 0.6 mL and at a rate of 0.1 mL/s.

rats [3] = experiment: Pharmacological characteristics at equivalent doses (2×ED50) in rats; settings: 2×ED50, tail vein; for Adverse reactions: Red urine (incidence): DMSO solution (DMSO alone 10/10); for Adverse reactions: Tremor (incidence): animals affected/animals; for Onset time: time of LORR
In short: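 Adult male Sprague-Dawley rats (250-300 g, n=8) received each drug at twice its ED50 via tail vein (0.6 mL at 0.1 mL/s). Onset of anesthesia taken as time to LORR.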

[4] = tested on: secretion of corticosterone, H295R cell line; experiment: cells; format: cell-based; settings: for Corticosterone as an indicator to determine the presence of inhibition: H295R, Table C3; for EC50: Homo sapiens, NCI-H295R, read-out: EC50 (Corticosterone)
Method: (§1) The Effects of the Compounds on Adrenocortical Function In Vitro Test
(§2) Then secretion of the cortisol and corticosterone in the supernatant, was measured using HPLC-MS/MS method to determine whether the compounds of the present invention had adrenotoxic potential.

[5] = tested on: secretion of cortisol, H295R cell line; experiment: cells; format: cell-based; settings: for Cortisol as an indicator to determine the presence of inhibition: H295R, Table C3; for EC50: Homo sapiens, NCI-H295R, read-out: EC50 (Cortisol)
Method: as §1, §2

rats [6] = format: in vivo, rat; settings: rats of the MAP/HR figures, 2×ED50, tail vein; same value in min
In short: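 Rats implanted with telemetry (left ventricular and abdominal aortic catheters, ECG leads) at least one week before recording; compounds given via lateral tail-vein catheter. MAP and HR sampled every 15 s for 30 min before and after dosing to judge hemodynamic stability.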

rats [7] = settings: continuous tail vein infusion at 2×MIR, LORR maintained 1 hour, Table C4
Method: Pharmacological Effects of the Compounds on Continuous Infusion in Rats
Adult male Sprague-Dawley rats with body weight ranging from 250 to 300 gm were selected for continuous infusion test. […] Time to recovery of righting reflex from stopping infusion, and time to fully awake from stopping infusion were recorded.

rats [8] = format: in vivo, rat; settings: rats of the MAP/HR figures, 2×ED50, tail vein

Row | SMILES | ED50 (rats [1]) [mg/kg] | Approximate therapeutic index (rats [2]) | Minimal lethal dose (rats [2]) [mg/kg] | Righting reflex duration (rats [3]) [min] | Adverse reactions: Red urine (incidence) (rats [3]) | Adverse reactions: Tremor (incidence) (rats [3]) | Onset time (rats [3]) [min] | Corticosterone as an indicator to determine the presence of inhibition [4] | EC50 [4] [nM] | Cortisol as an indicator to determine the presence of inhibition [5] | EC50 [5] [nM] | recovery time of the test animals' righting reflex (rats [6]) [min] | Onset time (rats [7]) [min] | Recovery time after stopping infusion (rats [7]) [min] | Types and incidence of adverse reactions (rats [7]) | recovery time of the test animals' righting reflex (rats [8]) [s] | Adverse reactions: Convulsions (incidence) (rats [3]) | Adverse reactions: Muscle twitching (incidence) (rats [3])
1 | C[C@H](c1ccccc1)n1cncc1C(=O)OC(C)(C)C [Compound C18] | 0.1 to 0.5 | >14 | >5 | 1.96 ± 1.39 | (8/8) | Tremor (5/8), Red urine | 0.25 ± 0.13 | 0 | > 1000 | 0 | > 1000 | 1.92 | 3 to 4 | 10 to 14 | Tremor (1/6) | 115 |  | 
2 | CCCC(CCC)OC(=O)c1cncn1[C@H](C)c1ccccc1 [Compound C20] | 0.1 to 0.5 | >16 | >7 | 3.59 ± 2.63 | (8/8) | Tremor (2/8), Red urine | 0.43 ± 0.07 | 0 | > 10000 | 0 | > 10000 | 4.05 | 3 to 4 | 8 to 15 | Tremor (3/6), Myoclonus (1/6) | 243 |  | 
3 | CCC(CC)OC(=O)c1cncn1[C@H](C)c1ccccc1 [Compound C24] | 0.01 to 0.1 | >11 | >1 | 2.21 ± 1.28 | urine (8/8) |  | 0.49 ± 0.15 | 0 | > 1000 | 0 | > 1000 | 2.25 | 3 to 4 | 9 to 13 | Tremor (1/6) | 135 | Convulsions (1/8), Red | 
4 | CCCCC(CCCC)OC(=O)c1cncn1[C@H](C)c1ccccc1 [Compound C25] | 0.1 to 0.5 | >10 | >4 | 2.03 ± 1.32 | (8/8) | Tremor (6/8), Red urine | 0.72 ± 0.20 | 0 | > 1000 | 0 | > 1000 | 2.08 | 3 to 4 | 12 to 15 |  | 125 |  | 
5 | CSCOC(=O)c1cncn1[C@H](C)c1ccccc1 [Compound C26] | 0.5 to 1 | >11 | >6 | 2.11 ± 1.02 | Red urine (8/8) |  | 0.30 ± 0.09 | 0 | > 10000 | 0 | > 10000 | 2.28 | 2 to 3 | 9 to 13 | Tremor (2/6) | 137 |  | Muscle twitching (1/8),
